According to patent US10138249B2, “Triazolopyridines and triazolopyrazines as LSD1 inhibitors” (priority 2014, dated 2018):

These compounds were tested against LSD-1 enzyme (Homo sapiens (Human), UniProt O60341). Conditions: not given.
Type: biochemical
Protocol: LANCE LSD1/KDM1A demethylase assay-10 μL of 1 nM LSD-1 enzyme (ENZO BML-SE544-0050) in the assay buffer (50 mM Tris, pH 7.5, 0.01% Tween-20, 25 mM NaCl, 5 mM DTT) were preincubated for 1 hour at 25° C. with 0.8 μL compound/DMSO dotted in black 384 well polystyrene plates. […] After stopping the reactions plates were incubated for 30 minutes and read on a PHERAstar FS plate reader (BMG Labtech).
In the case of Cc1ccc(-c2c(-c3ccc(C#N)cc3)cc(OC[C@@H]3CCNC3)c3nn(CC#N)c(=O)n23)cc1 [Example 5, (R)-4-(2-(cyanomethyl)-3-oxo-8-(pyrrolidin-3-ylmethoxy)-5-p-tolyl-2,3-dihydro-[1,2,4]triazolo[4,3-a]pyridin-6-yl)benzonitrile], the IC50 is reported as less than 0.05 µM. For Cc1ccc(-c2c(-c3ccc(C#N)cc3)cc(OC[C@@H]3CCNC3)c3nn(CC4CCCC4)c(=O)n23)cc1 [Example 7, 4-{2-(cyclopentylmethyl)-5-(4-methylphenyl)-3-oxo-8-[(3R)-pyrrolidin-3-ylmethoxy]-2,3-dihydro[1,2,4]triazolo[4,3-a]pyridin-6-yl}benzonitrile], the IC50 was less than 0.05 µM. With Cc1ccc(-c2c(-c3ccc(C#N)cc3)cc(OC[C@@H]3CCNC3)c3nn(Cc4ccccc4)c(=O)n23)cc1 [Example 16, 4-{2-benzyl-5-(4-methylphenyl)-3-oxo-8-[(3R)-pyrrolidin-3-ylmethoxy]-2,3-dihydro[1,2,4]triazolo[4,3-a]pyridin-6-yl}benzonitrile] the IC50 was less than 0.05 µM.

Same assay, conditions: 1 nM LSD-1 enzyme, 1 hour preincubation at 25° C., 0.4 μM biotin-labeled histone H3 peptide substrate
Cc1ccc(-c2c(-c3ccc(C#N)cc3)cc(OC[C@@H]3CCNC3)c3nncn23)cc1 [Example 1, 4-{5-(4-methylphenyl)-8-[(3R)-pyrrolidin-3-ylmethoxy][1,2,4]triazolo[4,3-a]pyridin-6-yl}benzonitrile] gave an IC50 of no more than 0.05 µM. For Cc1ccc(-c2c(-c3ccc(C#N)c(F)c3)cc(OC[C@@H]3CCNC3)c3nncn23)cc1 [Example 2, 2-fluoro-4-{5-(4-methylphenyl)-8-[(3R)-pyrrolidin-3-ylmethoxy][1,2,4]triazolo[4,3-a]pyridin-6-yl}benzonitrile], the IC50 was no more than 0.05 µM. Cc1ccc(-c2c(-c3ccc(C#N)cc3)cc(OC[C@@H]3CCNC3)c3n[nH]c(=O)n23)cc1 [Example 3, 4-{5-(4-methylphenyl)-3-oxo-8-[(3R)-pyrrolidin-3-ylmethoxy]-2,3-dihydro[1,2,4]triazolo[4,3-a]pyridin-6-yl}benzonitrile] gave an IC50 of no more than 0.05 µM. Compound Cc1ccc(-c2c(-c3ccc(C#N)cc3)cc(OC[C@@H]3CCNC3)c3nn(CCC#N)c(=O)n23)cc1 [Example 6, 4-{2-(2-cyanoethyl)-5-(4-methylphenyl)-3-oxo-8-[(3R)-pyrrolidin-3-ylmethoxy]-2,3-dihydro[1,2,4]triazolo[4,3-a]pyridin-6-yl}benzonitrile] has an IC50 of no more than 0.05 µM. With Cc1ccc(-c2c(-c3ccc(C#N)cc3)cc(OC[C@@H]3CCNC3)c3nn(CC4CCNCC4)c(=O)n23)cc1 [Example 13, 4-{5-(4-methylphenyl)-3-oxo-2-(piperidin-4-ylmethyl)-8-[(3R)-pyrrolidin-3-ylmethoxy]-2,3-dihydro[1,2,4]triazolo[4,3-a]pyridin-6-yl}benzonitrile] the IC50 was no more than 0.05 µM. In the case of Cc1ccc(-c2c(-c3ccc(C#N)cc3)cc(OC[C@@H]3CCNC3)c3nn(CCOc4ccccc4)c(=O)n23)cc1 [Example 14, 4-{5-(4-methylphenyl)-3-oxo-2-(2-phenoxyethyl)-8-[(3R)-pyrrolidin-3-ylmethoxy]-2,3-dihydro[1,2,4]triazolo[4,3-a]pyridin-6-yl}benzonitrile], the IC50 is reported as no more than 0.05 µM. Cc1ccc(-c2c(-c3ccc(C#N)cc3)cc(OC[C@@H]3CCNC3)c3nn(CCN(C)C)c(=O)n23)cc1 [Example 15, 4-{2-[2-(dimethylamino)ethyl]-5-(4-methylphenyl)-3-oxo-8-[(3R)-pyrrolidin-3-ylmethoxy]-2,3-dihydro[1,2,4]triazolo[4,3-a]pyridin-6-yl}benzonitrile] gave an IC50 of no more than 0.05 µM. Work on Cc1ccc(-c2c(-c3ccc(C#N)cc3)cc(OC[C@@H]3CCNC3)c3nn(Cc4ccc(C#N)cc4)c(=O)n23)cc1 [Example 17, 4-{2-(4-cyanobenzyl)-5-(4-methylphenyl)-3-oxo-8-[(3R)-pyrrolidin-3-ylmethoxy]-2,3-dihydro[1,2,4]triazolo[4,3-a]pyridin-6-yl}benzonitrile] yielded an IC50 of no more than 0.05 µM.
